Experimental data reported in US9918999B2, “Method for preparing a medical solution for the manufacture of a medicament for peritoneal dialysis” (FRESENIUS MEDICAL CARE DEUTSCHLAND GMBH, priority 2002, dated 2018).

How the values were obtained:
cultured cells = test: in vitro inhibition of cell growth (ICG) in cultured cells; type: cell-based
Text: Experiments in which measurements of the percentage of inhibition of cell growth (ICG) and fluorescence have been made at varying pH values and NAG concentrations during terminal heat sterilisation are illustrated in FIGS. 1-3. The results of the experiments imply that the pH of the amino sugar containing solution should be decreased from the neutral level and that, in a preferred embodiment of the invention, also the concentration of the amino sugar/sugars should be optimised.
(§1) A simple, reliable and known way to study the cytotoxicity of substances or of medical fluids is to test proliferation as in vitro inhibition of cell growth (ICG) in cultured cells. Another method to get a rough estimation of the amount of amino sugars that is rearranged is measurement of the fluorescence.

[1] = fluorescence of heat sterilised NAG containing solutions; type: physicochemical; details: terminally heat sterilised solution, excitation 350 nm, emission 430 nm, FIG. 3
Text: as §1

[2] = degradation during heat sterilisation (pH change, HPLC of 3-DG and 3,4-DGE); type: physicochemical
Text: NAG and other amino sugars have a major difference from glucose and glucose-like compounds by having one amino group and possibly an acetyl group coupled to the glucose ring. […] It should be noted that the decomposition pattern for an amino sugar solution during heat sterilisation follows specific Maillard reactions giving several different toxic decomposition products. The decomposition pattern differs for e.g. a glucose solution during heat sterilisation, wherein different decomposition products are formed. This difference is illustrated in FIGS. 4a-4d, showing chromatograms when analysing 3-DG and 3,4-DGE in a NAG solution and in a glucose solution, respectively. The difference in degradation is likely due to that the NAG molecules contains groups that allows the Maillard reaction to take place and therefore create a large number of degradation products not seen in a glucose solution.

[3] = test system: human peritoneal mesothelial cells and fibroblasts; details: cited from earlier work
peritoneum = details: rats, chronic peritoneal dialysis; cited from earlier work

Compound: CC(=O)N[C@H]1C(O)O[C@H](CO)[C@@H](O)[C@@H]1O (stereo partly shown) [NAG, N-acetylglucosamine]
- percentage inhibition of cell growth, effect of NAG concentration (cultured cells; NAG 30% vs 1.5% during terminal heat sterilisation, all three pH values, FIG. 2): lower after a terminal heat sterilisation at a NAG concentration of 30% than at a NAG concentration of 1.5%
- cytotoxicity after heat sterilisation (cultured cells; conventional medical solutions): increased cytotoxicity after heat sterilisation
- pH of sterilisation at which inhibition of cell growth reaches a minimum (cultured cells; solution containing 1.5% NAG, FIG. 1): 2.5-3.5
- percentage inhibition of cell growth, effect of pH (cultured cells; terminal heat sterilisation at pH 3.0, 5.5 and 7.2, FIG. 2): lower after terminal heat sterilisation at a pH of 3.0 than at a pH of 5.5 and 7.2
- pH at which the lowest fluorescence is seen [1]: ~4
- change of pH of the solution during sterilisation [2]: increases during sterilisation
- known glucose degradation products in heat sterilised solution ([2]; heat sterilised NAG solutions): none of the known glucose degradation products has been found
- production of hyaluronan and sulphated glycosaminoglycans [3]: rapidly stimulates the production of hyaluronan and sulphated glycosaminoglycans
- effect on the peritoneum of a supplemented dialysis solution (peritoneum): causes accumulation of glucosaminoglycans in the peritoneal interstitium, resulting in a favorable change of the peritoneal permeability

Compound: hyaluronan [reference compound]
- effect on the peritoneum of a supplemented dialysis solution (peritoneum): function of the peritoneum as a dialysis membrane is better preserved
